Values quoted from earlier work in patent US9928346B1, “Test panel to measure blood neurotoxin levels in prematernal women and for the general public in relation to mental disorders of the aging” (priority 2016, dated 2018).
Like-named read-outs stand apart in the source and are kept apart here.

Key:
[1] = for Minimum Risk Level: blood levels
[2] = for an average man
[3] = orally consumed, toxicology assessment

| Structure (SMILES) | Minimum Risk Level [1] | tentative dietary suggestions [2] | Minimum Risk Level [3] | MRL for blood content ([1]; recommended by Mayo Clinic and Micro Trace Minerals diagnostic centers) | absorption by the intestines (digested aluminum) | absorbed in the blood (intravenous injection from a vaccine) |
| --- | --- | --- | --- | --- | --- | --- |
| [AsH3] [Arsenic, arsenic] | <10 microgram per liter | – | – | – | – | – |
| [Pb] [Lead, lead] | <50 microgram per liter | – | – | – | – | – |
| [Mn+2] [Manganese, manganese] | <18 microgram per liter | about 10 mg/day | – | – | – | – |
| [Al] [Aluminum, aluminum] | <6 microgram per liter | – | 1.0 mg Al/kg body weight/day | < 6 microgram/liter | 1% | 100% |
